Key:
[1] = system: human peripheral blood monocyte cells, second type (HLA-DRB1*13:01, 14:06); experiment: ELISPOT assay for interleukin-4, cell 2; format: cell-based; settings: 4×10^5 cells per well, peptide 10 μg/ml, 48 hours, after 13 days culture with peptide 1 μg/ml and IL-2
Protocol: (§1) There was performed an assay for specifying a peptide that could actually be an antigen from the peptide candidate list obtained up to Example 8. In this example, it was confirmed whether the sequence of the peptide obtained as described above could function as a T cell epitope. Of the 12 highly versatile epitope candidates obtained above, 8 epitope candidates were subjected to an assay using peptides.
(§2) Human peripheral blood monocyte cells carrying HLA types and showing high binding affinity with 8 peptide sequences in Example 8 were used. Specifically, human peripheral blood monocyte cells carrying the following 2 types of HLA types were purchased from Lonza K.K. (Tokyo, Japan) and used. The HLA types of the first type of human peripheral blood monocyte cells used were HLA-DPA1*01:03, 02:02, HLA-DPB1*04:01, 05:01, HLA-DQA1*01:02, 02:01, HLA-DQB1*03:03, 05:02, and HLA-DRB1*07:01, 15:02. The HLA types of the second type of human peripheral blood monocyte cells were HLA-DPA1*01:03, HLA-DPB1*04:01, 04:02, HLA-DOA1*01:03, 05:05, HLA-DOB1*03:01, 06:03, and HLA-DRB1*13:01,14:06.
(§3) Cells were cultured in the following manner. […]
(§4) ELISPOT assays for interferon-γ and interleukin-4 were conducted. […] The number of spots of the color-developed plate was measured by a contract analysis service of M&S TechnoSystems, Inc. (Osaka, Japan).

[2] = system: human peripheral blood monocyte cells, first type (HLA-DRB1*07:01, 15:02); experiment: ELISPOT assay for interleukin-4, cell 1; format: cell-based; settings: 4×10^5 cells per well, peptide 10 μg/ml, 48 hours, after 13 days culture with peptide 1 μg/ml and IL-2
Protocol: as §1, §2, §3, §4

T cells = settings: peptide sequence including the TREM sequence (from TCRβ repertoire, Table 12 no) activates T cells to induce interferon-γ; cited from earlier work

Substance | ELISPOT IL-4 cell 2 (number of spots) [1] | ELISPOT IL-4 cell 1 (number of spots) [2] | IFN-g release (T cells)
7 (QDEKGVTQNGRLITA; listed as Homo sapiens) [compound 7] | 12 | 6 | –
15 (LITMDWTWRFLFVVA; listed as Homo sapiens) [compound 15] | – | – | Positive

Reference: US20240319207A1, “METHOD FOR IDENTIFYING T-CELL EPITOPE SEQUENCE, AND APPLICATION OF SAME” (priority 2021, published 2024)
